# Measurements published in PMC6017357, “In Vitro Inhibitory Effects of Synthetic Cannabinoid EAM-2201 on Cytochrome P450 and UDP-Glucuronosyltransferase Enzyme Activities in Human Liver Microsomes” (Molecules : A Journal of Synthetic Chemistry and Natural …, 2018).
# Target: T1, CYP2A6 (Homo sapiens, UniProt P11509)
# T1 construct: from tissue; host or cells: ultrapooled human liver microsomes
# T1 sequence (P11509 1-494): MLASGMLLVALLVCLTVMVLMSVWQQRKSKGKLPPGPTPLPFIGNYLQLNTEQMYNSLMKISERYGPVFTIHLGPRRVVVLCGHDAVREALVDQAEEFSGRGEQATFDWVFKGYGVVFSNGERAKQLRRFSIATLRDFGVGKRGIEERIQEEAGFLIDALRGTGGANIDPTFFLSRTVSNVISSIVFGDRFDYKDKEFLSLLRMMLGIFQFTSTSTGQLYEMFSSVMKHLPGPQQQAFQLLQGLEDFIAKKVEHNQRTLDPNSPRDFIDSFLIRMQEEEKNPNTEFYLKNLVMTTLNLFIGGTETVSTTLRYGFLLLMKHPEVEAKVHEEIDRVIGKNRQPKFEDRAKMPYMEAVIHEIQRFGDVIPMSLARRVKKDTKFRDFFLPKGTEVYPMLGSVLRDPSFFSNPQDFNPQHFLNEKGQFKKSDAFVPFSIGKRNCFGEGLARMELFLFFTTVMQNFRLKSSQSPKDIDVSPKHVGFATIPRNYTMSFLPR
# Assay: CYP2A6-mediated coumarin 7-hydroxylation in pooled human liver microsomes
# Assay type: in vitro ADME
# Settings: up to 50 µM, without 30-min preincubation
# Description: The inhibitory potential (IC50 values) of EAM-2201 on CYP1A2, CYP2A6, CYP2C8, CYP2C9, CYP2C19, CYP2D6 and CYP3A4 were evaluated using ultrapooled human liver microsomes and a cocktail of seven CYP substrates followed by LC-tandem mass spectrometry (LC-MS/MS) as previously described. […] Aliquots (5 µL) of the diluted supernatants were analyzed using LC-MS/MS. […]
# The metabolites formed from CYP substrates were simultaneously quantified using our previously described LC-MS/MS method. […] Quantification was performed by selected reaction monitoring (SRM) of the [M + H]^+ ion and the related product ion for each metabolite: acetaminophen, 152.1 > 110.3; N-desethylamodiaquine, 328.1 > 283.0; 7-hydroxycoumarin, 163.0 > 107.2; 4-hydroxybupropion, 256.1 > 238.0; 4′-hydroxydiclofenac, 312.0 > 231.1; 4′-hydroxy-mephenytoin, 235.1 > 150.1; 1′-hydroxybufuralol, 278.1 > 186.1; 1′-hydroxymidazolam, 341.9 > 324.0; ^13C2,^15N-acetaminophen, 155.1 > 111.2; and d9-1′-hydroxybufuralol, 287.2 > 187.0. […]
smiles,measurement,value
"CCc1ccc(C(=O)c2cn(CCCCCF)c3ccccc23)c2ccccc12 [EAM-2201, (4-ethyl-1-naphthalenyl)[1-(5-fluoropentyl)-1H-indol-3-yl]-methanone]",inhibition of CYP2A6-mediated coumarin 7-hydroxylation,negligibly inhibited
